We go through 27 molecules from patent US10758534B2 (Vertex Pharmaceuticals Incorporated, priority 2014, dated 2020).

T1 sequence (P13569 with tags, fused parts or gaps DEL508-508): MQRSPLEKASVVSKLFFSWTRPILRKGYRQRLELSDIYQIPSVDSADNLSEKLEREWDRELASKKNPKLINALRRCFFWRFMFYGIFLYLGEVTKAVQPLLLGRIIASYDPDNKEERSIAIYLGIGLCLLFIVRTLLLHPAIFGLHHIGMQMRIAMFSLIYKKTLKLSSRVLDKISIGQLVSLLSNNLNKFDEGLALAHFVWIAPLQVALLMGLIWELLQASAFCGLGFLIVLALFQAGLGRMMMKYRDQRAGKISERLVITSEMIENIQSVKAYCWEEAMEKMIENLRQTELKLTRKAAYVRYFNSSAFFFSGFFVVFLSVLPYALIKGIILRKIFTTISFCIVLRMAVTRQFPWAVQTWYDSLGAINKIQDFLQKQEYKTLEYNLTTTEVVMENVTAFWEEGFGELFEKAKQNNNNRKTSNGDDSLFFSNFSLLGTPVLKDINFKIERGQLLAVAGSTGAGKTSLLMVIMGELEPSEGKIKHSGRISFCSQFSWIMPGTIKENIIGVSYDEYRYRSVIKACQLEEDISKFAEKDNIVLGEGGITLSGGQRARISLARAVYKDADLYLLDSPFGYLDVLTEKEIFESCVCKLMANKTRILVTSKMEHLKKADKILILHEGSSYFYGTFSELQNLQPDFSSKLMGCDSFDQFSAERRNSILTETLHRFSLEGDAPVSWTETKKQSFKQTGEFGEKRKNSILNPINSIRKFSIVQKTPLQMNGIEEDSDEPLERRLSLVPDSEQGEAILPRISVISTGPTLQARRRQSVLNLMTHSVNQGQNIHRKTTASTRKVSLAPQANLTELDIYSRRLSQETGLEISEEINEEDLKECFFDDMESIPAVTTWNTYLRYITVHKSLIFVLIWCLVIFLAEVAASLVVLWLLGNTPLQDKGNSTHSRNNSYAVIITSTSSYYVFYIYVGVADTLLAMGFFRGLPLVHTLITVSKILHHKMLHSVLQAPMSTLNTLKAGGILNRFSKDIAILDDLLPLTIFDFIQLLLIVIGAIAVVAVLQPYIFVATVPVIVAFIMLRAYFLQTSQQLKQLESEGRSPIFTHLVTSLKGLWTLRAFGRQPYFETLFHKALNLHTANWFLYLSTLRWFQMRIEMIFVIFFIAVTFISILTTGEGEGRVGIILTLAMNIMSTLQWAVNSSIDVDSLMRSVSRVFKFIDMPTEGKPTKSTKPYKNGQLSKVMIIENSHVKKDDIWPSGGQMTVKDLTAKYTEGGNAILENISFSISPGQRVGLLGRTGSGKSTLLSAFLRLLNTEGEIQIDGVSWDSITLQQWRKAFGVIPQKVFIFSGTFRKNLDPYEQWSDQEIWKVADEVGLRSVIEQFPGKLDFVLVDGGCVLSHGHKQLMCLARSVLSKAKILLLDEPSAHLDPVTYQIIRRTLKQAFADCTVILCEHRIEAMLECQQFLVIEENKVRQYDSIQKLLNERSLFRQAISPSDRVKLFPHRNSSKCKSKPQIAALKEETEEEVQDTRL

The experiment concerns the target T1, F508del (Homo sapiens, UniProt P13569, DEL508-508).
T1 construct: expressed in transfected cells
Briefly: Protocol 1: membrane potential optical assay (FLIPR III, voltage sensing dye), identification of potentiator compounds. In kind it is cell-based. Conditions: Table 3, compounds of Table 1. The gist of the method: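 Gating potentiation is read as a membrane-potential fluorescence change (FLIPR III, voltage-sensing dye) after one forskolin addition under a Cl− gradient, with gluconate replacing chloride, pH 7.4. Cells are F508del-expressing NIH3T3 mouse fibroblasts held 24 h at 27 °C and exposed to compound before dye loading.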
As for `Cc1cc(OC(C)C)ncc1-c1ccc(C(=O)NS(=O)(=O)c2cccc(N)n2)c(N2CC(C)CC2(C)C)n1` (stereo not drawn) [Compound 905, N-[(6-amino-2-pyridyl)sulfonyl]-6-(6-isopropoxy-4-methyl-3-pyridyl)-2-(2,2,4-trimethylpyrrolidin-1-yl)pyridine-3-carboxamide], the EC30 entry is reported as “+++ (“+++” means <3 uM)”.

As for `CC(C)Oc1ccc(-c2ccc(C(=O)NS(=O)(=O)c3cccc(N)n3)c(N3CCC(c4ccccc4)C3)n2)cn1` (stereo not drawn) [Compound 1112, N-[(6-amino-2-pyridyl)sulfonyl]-6-(6-isopropoxy-3-pyridyl)-2-(3-phenylpyrrolidin-1-yl)pyridine-3-carboxamide], the EC30 entry was “++ (“++” means between 3 uM and 10 uM)”.

Consider `CC(C)COc1cc(F)cc(-c2ccc(C(=O)NS(=O)(=O)c3cccc(N)n3)c(OC(C)(C)Cc3ccccc3)n2)c1` [Compound 1365, N-[(6-amino-2-pyridyl)sulfonyl]-2-(1,1-dimethyl-2-phenyl-ethoxy)-6-(3-fluoro-5-isobutoxy-phenyl)pyridine-3-carboxamide], for which the EC30 entry is recorded as “+++ (“+++” means <3 uM)”.

On to `CC(C)COc1cc(F)cc(-c2ccc(C(=O)NS(=O)(=O)c3ccn[nH]3)c(N3CCCC34CCC4)n2)c1` [Compound 1282, 2-(8-azaspiro[3.4]octan-8-yl)-6-(3-fluoro-5-isobutoxy-phenyl)-N-(1H-pyrazol-5-ylsulfonyl)pyridine-3-carboxamide], for which the EC30 entry was “+++ (“+++” means <3 uM)”.

Consider `COc1ccc(-c2ccc(C(=O)NS(=O)(=O)c3cccnc3N)c(N3C[C@@H](C)CC3(C)C)n2)c(OC)c1` [Compound 1705, N-[(2-amino-3-pyridyl)sulfonyl]-6-(2,4-dimethoxyphenyl)-2-[(4S)-2,2,4-trimethylpyrrolidin-1-yl]pyridine-3-carboxamide], for which the EC30 entry is “+++ (“+++” means <3 uM)”.

Turning to `C#CCOc1cccc(S(=O)(=O)NC(=O)c2cccnc2N2CC(C)CC2(C)C)n1` (stereo not drawn) [Compound 1753, N-[(6-prop-2-ynoxy-2-pyridyl)sulfonyl]-2-(2,2,4-trimethylpyrrolidin-1-yl)pyridine-3-carboxamide], the EC30 entry was “++ (“++” means between 3 uM and 10 uM)”.

As to `CNc1cc(S(=O)(=O)NC(=O)c2cc(C(C)(C)C)nn2Cc2c(C)cccc2C)ccn1` [Compound 821, 5-tert-butyl-2-[(2,6-dimethylphenyl)methyl]-N-[[12-(methylamino)-4-pyridyl]sulfonyl]pyrazole-3-carboxamide], the EC30 result is “++ (“++” means between 3 uM and 10 uM)”.

Regarding `CC(C)COc1cc(F)cc(-c2ccc(C(=O)NS(=O)(=O)c3cccc(N)n3)c(OCC3CCCO3)n2)c1` (stereo not drawn) [Compound 1661, N-[(6-amino-2-pyridyl)sulfonyl]-6-(3-fluoro-5-isobutoxy-phenyl)-2-(tetrahydrofuran-2-ylmethoxy)pyridine-3-carboxamide], the EC30 result is recorded as “+++ (“+++” means <3 uM)”.

With `Cc1cc(OCC(C)C)ncc1-c1ccc(C(=O)NS(=O)(=O)c2cccc(N)n2)c(N2CC(C)CC2(C)C)n1` (stereo not drawn) [Compound 851, N-[(6-amino-2-pyridyl)sulfonyl]-6-(6-isobutoxy-4-methyl-3-pyridyl)-2-(2,2,4-trimethylpyrrolidin-1-yl)pyridine-3-carboxamide], the EC30 entry is given as “+++ (“+++” means <3 uM)”.

On to `COc1cc(-c2ccc(C(=O)NS(=O)(=O)c3cccc(N)n3)c(Oc3c(C)cc(C)cc3C)n2)c(F)cn1` [Compound 1277, N-[(6-amino-2-pyridyl)sulfonyl]-6-(5-fluoro-2-methoxy-4-pyridyl)-2-(2,4,6-trimethylphenoxy)pyridine-3-carboxamide], for which the EC30 result is recorded as “+++ (“+++” means <3 uM)”.

Consider `CC(C)COc1cc(F)cc(-c2ccc(C(=O)NS(=O)(=O)c3ccccn3)c(N3CCC(C)(C)CC3)n2)c1` [Compound 1069, 2-(4,4-dimethyl-1-piperidyl)-6-(3-fluoro-5-isobutoxy-phenyl)-N-(2-pyridylsulfonyl)pyridine-3-carboxamide], for which the EC30 entry is “+++ (“+++” means <3 uM)”.

Turning to `COc1ccc(F)cc1-c1ccc(C(=O)NS(=O)(=O)c2ccc[nH]c2=O)c(Oc2c(C)cc(C)cc2C)n1` [Compound 1151, 6-(5-fluoro-2-methoxy-phenyl)-N-[(2-oxo-1H-pyridin-3-yl)sulfonyl]-2-(2,4,6-trimethylphenoxy)pyridine-3-carboxamide], the EC30 result is “++ (“++” means between 3 uM and 10 uM)”.

Turning to `CC(C)Oc1ccc(-c2ccc(C(=O)NS(=O)(=O)c3cccc(N)n3)c(N3C[C@@H](C)CC3(C)C)n2)cn1` [Compound 811, N-[(6-amino-2-pyridyl)sulfonyl]-6-(6-isopropoxy-3-pyridyl)-2-[(4S)-2,2,4-trimethylpyrrolidin-1-yl]pyridine-3-carboxamide], the EC30 entry is “+++ (“+++” means <3 uM)”.

Turning to `CC(C)CCOc1ccc(-c2ccc(C(=O)NS(=O)(=O)c3cccc(N)n3)c(N3CC(C)CC3(C)C)n2)cn1` (stereo not drawn) [Compound 848, N-[(6-amino-2-pyridyl)sulfonyl]-6-(6-isopentyloxy-3-pyridyl)-2-(2,2,4-trimethylpyrrolidin-1-yl)pyridine-3-carboxamide], the EC30 result was “+++ (“+++” means <3 uM)”.

Consider `CCOc1cc(C)cc(-c2cnc(N3CC(C)CC3(C)C)c(C(=O)NS(=O)(=O)c3cccc(N)n3)c2)c1` (stereo not drawn) [Compound 1843, N-[(6-amino-2-pyridyl)sulfonyl]-5-(3-ethoxy-5-methyl-phenyl)-2-(2,2,4-trimethylpyrrolidin-1-yl)pyridine-3-carboxamide], for which the EC30 result was “+++ (“+++” means <3 uM)”.

For the molecule `CCN(CC)c1cc(-c2ccc(C(=O)NS(=O)(=O)c3cccc(N)n3)c(N3C[C@@H](C)CC3(C)C)n2)cc(C)n1` [Compound 1739, N-[(6-amino-2-pyridyl)sulfonyl]-6-[2-(diethylamino)-6-methyl-4-pyridyl]-2-[(4S)-2,2,4-trimethylpyrrolidin-1-yl]pyridine-3-carboxamide], the EC30 entry is listed as “+++ (“+++” means <3 uM)”.

For `CC(C)COc1cc(F)cc(-c2ccc(C(=O)NS(=O)(=O)N3CCCC(N)C3)c(N3CC(C)CC3(C)C)n2)c1` (stereo not drawn) [Compound 1447, N-[(3-amino-1-piperidyl)sulfonyl]-6-(3-fluoro-5-isobutoxy-phenyl)-2-(2,2,4-trimethylpyrrolidin-1-yl)pyridine-3-carboxamide], the EC30 result is “+++ (“+++” means <3 uM)”.

Consider `CC1CCCC(Oc2cccc(S(=O)(=O)NC(=O)c3cccnc3N3CC(C)CC3(C)C)n2)C1` (stereo not drawn) [Compound 1988, N—[[6-(3-methylcyclohexoxy)-2-pyridyl]sulfonyl]-2-(2,2,4-trimethylpyrrolidin-1-yl)pyridine-3-carboxamide], for which the EC30 result is “+++ (“+++” means <3 uM)”.

For `CC(C)COc1cc(F)cc(-c2ccc(C(=O)NS(=O)(=O)c3cccc(N)n3)c(OCCC3CCCC3)n2)c1` [Compound 1440, N-[(6-amino-2-pyridyl)sulfonyl]-2-(2-cyclopentylethoxy)-6-(3-fluoro-5-isobutoxy-phenyl)pyridine-3-carboxamide], the EC30 entry is recorded as “+++ (“+++” means <3 uM)”.

On to `CC(=O)Nc1ncccc1S(=O)(=O)NC(=O)c1ccc(-c2ccc(OC(C)C)nc2)nc1N1C[C@@H](C)CC1(C)C` [Compound 1976, N-[(2-acetamido-3-pyridyl)sulfonyl]-6-(6-isopropoxy-3-pyridyl)-2-[(4S)-2,2,4-trimethylpyrrolidin-1-yl]pyridine-3-carboxamide], for which the EC30 entry was “+++ (“+++” means <3 uM)”.

Regarding `Cc1cc(C)c(Oc2nc(C3=CCCC4(C3)OCCO4)ccc2C(=O)NS(=O)(=O)c2cccc(N)n2)c(C)c1` [Compound 1437, N-[(6-amino-2-pyridyl)sulfonyl]-6-(1,4-dioxaspiro[4.5]dec-8-en-9-yl)-2-(2,4,6-trimethylphenoxy)pyridine-3-carboxamide], the EC30 entry was “++ (“++” means between 3 uM and 10 uM)”.

As for `Cc1cc(C)c(Oc2nc(C)ccc2C(=O)NS(=O)(=O)c2cccc(N3CCOCC3)n2)c(C)c1` [Compound 883, 6-methyl-N-[(6-morpholino-2-pyridyl)sulfonyl]-2-(2,4,6-trimethylphenoxy)pyridine-3-carboxamide], the EC30 result was “++ (“++” means between 3 uM and 10 uM)”.

Consider `COc1ncc(-c2ccc(C(=O)NS(=O)(=O)c3ccc[nH]c3=O)c(Oc3c(C)cc(C)cc3C)n2)cc1C` [Compound 930, 6-(6-methoxy-5-methyl-3-pyridyl)-N-[(2-oxo-1H-pyridin-3-yl)sulfonyl]-2-(2,4,6-trimethylphenoxy)pyridine-3-carboxamide], for which the EC30 entry was “++ (“++” means between 3 uM and 10 uM)”.

As to `COc1cc(OC)cc(-c2ccc(C(=O)NS(=O)(=O)c3cccnc3N)c(N3C[C@@H](C)CC3(C)C)n2)c1` [Compound 1825, N-[(2-amino-3-pyridyl)sulfonyl]-6-(3,5-dimethoxyphenyl)-2-[(4S)-2,2,4-trimethylpyrrolidin-1-yl]pyridine-3-carboxamide], the EC30 result is listed as “+++ (“+++” means <3 uM)”.

On to `Cc1ccc(-c2ccc(C(=O)NS(=O)(=O)c3cccc(N)n3)c(N3CCC(C)CC3)n2)cc1` [Compound 802, N-[(6-amino-2-pyridyl)sulfonyl]-2-(4-methyl-1-piperidyl)-6-(p-tolyl)pyridine-3-carboxamide], for which the EC30 entry is recorded as “+++ (“+++” means <3 uM)”.

Regarding `CC(C)COc1cc(F)cc(-c2ccc(C(=O)NS(=O)(=O)c3cccc(N)n3)c(OC3CCOCC3)n2)c1` [Compound 1324, N-[(6-amino-2-pyridyl)sulfonyl]-6-(3-fluoro-5-isobutoxy-phenyl)-2-tetrahydropyran-4-yloxy-pyridine-3-carboxamide], the EC30 result is reported as “+++ (“+++” means <3 uM)”.

For the molecule `CCC1CCC(C)N1c1nc(-c2cc(F)cc(OCC(C)C)c2)ccc1C(=O)NS(=O)(=O)c1cccc(N)n1` (stereo not drawn) [Compound 1222, N-[(6-amino-2-pyridyl)sulfonyl]-2-(2-ethyl-5-methyl-pyrrolidin-1-yl)-6-(3-fluoro-5-isobutoxy-phenyl)pyridine-3-carboxamide], the EC30 entry is “+++ (“+++” means <3 uM)”.
